One may read the IC50 as the concentration that gives 50% inhibition. Higher therefore signals lower potency.

Entries after “also recorded” stand apart in the source; their conditions may differ.

Holding throughout (format): cell-based, human
For test [1], the system named is HeLa cells. The experiment in a line: Mitochondrial membrane potential (JC-1). The following applies: 0–25 μM. The procedure:
Mitochondrial membrane potential (MMP) changes appearing in the intrinsic pathway of mitochondria were spectrophotometrically detected. MMP was measured in a Spectramax, M5 fluorimetric device, at wavelengths of 490 nm (excitation), 530 nm(emission) according to the fluorometric Mitochondria Staining Kit (Sigma-Aldrich, Schnelldorf, Germany, CS0390) protocol.

For the next test, the system named is MDA-MB-231. Description: WST-1 cytotoxicity, MDA-MB-231. The procedure:
(§1) Cancer and normal cell lines were purchased from ATCC and stored in liquid nitrogen. HT-29 (colon adenoma cancer), HeLa (cervix adenoma cancer cell), MDA-MB-231 (breast adenoma cancer cell) and HEK-293 (embryonic kidney epithelial cell), PNT-1A (normal prostate cells) cell lines were incubated in DMEM: F-12 and RPMI-1640, including 10% Foetal Bovine Serum (FBS), 100 μg/mL streptomycin/100 IU/mL penicillin, at 37 °C in an incubator containing 5% CO2, 95% air in a humid atmosphere.
(§2) The cytotoxic effects of the substances were evaluated with WST-1 kits (Roche, Germany) in accordance with the manufacturer’s protocols. The cells were plated on 96-well plates (10^4 cells in each well). After incubation for 24 h, the media were discarded and the substances and Cisplatin as the control drug, at doses of 0, 2.5, 5, 10, 25, 50, 100, and 200 μM, were incubated for 24, 48, and 72 h. WST-1 reactive of 10 µl was added to all wells. Following 4 h incubation, the measurements were taken on a plate reader (Spectramax M5) at wavelengths of 450 and 630 nm. Graphs were then created and the IC50 value of each substance was calculated.
On the technique in general: Tetrazolium assays rely on reduction of a dye to a coloured formazan, in cell work by metabolically active cells.

For the next test, the system named is HT-29. The experiment in a line: WST-1 cytotoxicity, HT-29. The procedure: as §1, §2
The test system of another test is HeLa. The experiment in a line: WST-1 cytotoxicity, HeLa. The procedure:
as §1, §2

Test [2] deals with HeLa cells. Description: Intracellular free amino acids by LC-MS/MS. The following applies: 25 μM, 24 h, vs negative control. The procedure:
The intracellular free amino acid level was measured according to the Chen et al method. HeLa cells were planted in 10 cm^2 cell culture dishes, and following 24 h treatment with sulfonamide at a dose of 25 μM, the growth medium was poured out, and the cells were swiftly washed twice with 5 ml cold PBS. Pre-cooled MeOH (−60 °C) was added, and the cells were stripped with a cell scraper. The cell suspension obtained was replaced in 15 ml conic tubes. The samples were kept in liquid nitrogen for 10 min and then dissolved on ice, which was triplicated until the cells were shredded. The samples were centrifuged at 3.000 g at 4 °C, for 30 min, and the supernatants were transferred to new tubes. The amino acid level in the supernatant was measured using LC-MS/MS according to the protocol of the Jasem kit. The Jasem free amino acid assay kit is used for studies involving the diagnosis of various hereditary metabolic disorders and the feeding of newborns with hereditary metabolic disorders. In this study, the protocol used to determine the intracellular free amino acid is as follows. […] 27 amino acids in the acquired supernatant were analysed in HPLC vials using LC-MS/MS (Shimadzu 8045, Kyoto, Japan). The residual pellet was lysed in 1 ml lysis buffer, protein concentration of which was detected using the BCA protein assay kit (Thermo Fisher Scientific, Waltham, MA, USA). […]

The subject of a further test is HEK-293. The experiment in a line: WST-1 cytotoxicity, HEK-293 normal cells. The following applies: HEK-293 normal cell. The procedure: as §1, §2
Test [3] concerns HeLa cells. The experiment in a line: Extracellular pH (blood gas device). The following applies: HeLa media, dose-dependent, initial pHe 6.4. The procedure: Intracellular pH was measured according to the protocol of the fluorometric Intracellular pH Assay Kit (Sigma, Schnelldorf, Germany, MAK-150). Fluorescent BCFL-AM indicator that was able to pass through the cell membrane was used to measure intracellular pH fluctuations in the fluorometric intracellular pH kit. BCFL-AM was utilised to measure the reductions in intracellular pH of the cells that had been treated by various conditions. The cells were plated on black plates, as 6 × 10^4 in each well of the plate, and incubated for 24 h. The medium was replaced with BCFL-AM Reagent which had been prepared in 100 µl of HBS solution (Hank’s buffer with 20 mM HEPES, 5 mM Probenecid), then the cells were incubated at 37 °C in an atmosphere of 5% CO2 for 30 min (protected from light). Sulfonamide compound at doses of 0–25 μM was added to the HBS solution. In the next 5 min, the measurement was performed at wavelengths of 490 nm (excitation) 535 nm (emission) in spectrofluorimetry (Spectramax, M5). Extracellular pHe and lactate levels were measured with commercial kit by the blood gas device (ABL90 FLEX PLUS, Radiometer, Copenhagen, Denmark) which is routinely used in the clinical biochemistry laboratory of hospital. After the application of the substance in this method, the media were analysed directly by the device.

Test [4] relates to HeLa cells. Description: gamma-H2AX immunofluorescence (DNA damage). Particulars: 10 and 25 μM, 24 h. The procedure:
HeLa cells (1 × 10^4/ml) were seeded in 12-well cell culture dishes and after 24 h they were administered with the sulfonamide derivative compounds at doses of 10 and 25 µM and incubated for 24 h. The cells were washed with PBS and fixed with 100% methanol at −20 °C overnight, which was followed by PBS washing three times for 10 min for each washing. The cells were treated with 0.2% Triton X-100 in a shaker, at room temperature for 5 min. They were washed with PBS, and 1% BSA-containing PBS was then added, and incubation with primary mouse monoclonal anti-γ-H2AX antibody (Cell Signalling Technology, Danvers, MA, USA) was applied at 37 °C for 1 h. The cells were washed with PBS for 5 min three times. Secondary goat anti-mouse Alexa-488-conjugated IgG (Invitrogen, Thermo Fisher Scientific, Waltham, MA, USA) was administered and the cells were incubated at 37 °C for 20 min, followed by PBS washing for 4–5 min three times. 1 ml 70% EtOH was added, and at +4 °C, released to incubation for 5 min. 1 ml 100% EtOH was added in a shaker, which was then incubated at room temperature for 1–2 min. The nucleus was stained with DAPI and the images were recorded using an Olympus Inverted fluorescence microscope (Olympus CKX 53, DP73, Tokyo, Japan).

In another test the test system is PNT-1A. Description: WST-1 cytotoxicity, PNT-1A normal cells. Particulars: PNT-1A normal cell. As to the method:
as §1, §2

On to `NS(=O)(=O)c1ccc(CCN=Cc2cc(Cl)ccc2O)cc1` [Compound A-1], for which the “mitochondrial membrane potential (MMP)” value in the test on HeLa cells [1] is given as “dose-dependent decrease in MMP”. Also, the IC50 with MDA-MB-231 (MDA-MB-231, 24 h) is 293 µM; with MDA-MB-231 (MDA-MB-231, 48 h), 65.9 µM; in the test on MDA-MB-231 (MDA-MB-231, 72 h), 37.3 µM; with HT-29 (HT-29, 24 h), 299 µM; with HT-29 (HT-29, 48 h), 52.6 µM; with HT-29 (HT-29, 72 h), 123 µM. The IC50 with HeLa (24 h) was 28.9 µM; in the test with HeLa (48 h), 17.4 µM; with HeLa (72 h), 13.7 µM; in the test on HEK-293 (24 h), 105 µM; in the test on HEK-293 (48 h), 209 µM; in the test with HEK-293 (72 h), 25.3 µM. The IC50 is 389 µM in the test with PNT-1A (24 h), 110 µM in the test on PNT-1A (48 h) and 203 µM in the test with PNT-1A (72 h). The “intracellular free amino acid levels” value in the test on HeLa cells [2] is “the amino acids showed a decline as compared to the negative control group; also recorded: increase in tyrosine levels and a reduction in other amino acids”. Moreover, the “extracellular pH (pHe) reached” value in the test on HeLa cells [3] turned out to be 7.3. Further, the “nuclear γ-H2AX foci” value in the test with HeLa cells [4] was “increase the number of nuclear γ-H2AXfoci”.

For the origin of these results see article PMC6211230, “Assessment of the antiproliferative and apoptotic roles of sulfonamide carbonic anhydrase IX inhibitors in HeLa cancer cell line” (Journal of Enzyme Inhibition and Medicinal Chemistry, 2018).
